How the values were obtained:
Test in all cases: SelectScreen ZLYTE
Format in all cases: biochemical
Details in all cases: INX-0315 at 100nM
[1] = target: T1, FGFR2 (Homo sapiens, UniProt P21802)
T1 construct: purchased Thermo Fisher Scientific SelectScreen (plus Nanosyn / Reaction Biology for CDK/cyclin lines)
From the text: (§1) INX-315 was first evaluated in the SelectScreen Biochemical Kinase Profiling at Thermo Fisher Scientific (Madison, WI). The primary screen consisted of INX-315 dosed at a single concentration of 100 nmol/L in 1% DMSO across each platform within the SelectScreen array of assays, LanthaScreen Eu Kinase Binding Assay; AdaptaScreen; and Z'LyteScreen using preestablished conditions at Thermo Fisher Scientific as shown in Supplementary Table S2. […] The follow-up screen consisted of 10-point dose–response curves for INX-315 from 1 µmol/L to 0.0495 nmol/L.

[2] = target: T2, YES1 (Homo sapiens, UniProt P07947)
T2 construct: purchased Thermo Fisher Scientific SelectScreen (plus Nanosyn / Reaction Biology for CDK/cyclin lines)
From the text: as §1

[3] = target: T3, MAP4K4 (HGK) (Homo sapiens, UniProt O95819)
T3 construct: purchased Thermo Fisher Scientific SelectScreen (plus Nanosyn / Reaction Biology for CDK/cyclin lines)
From the text: as §1

[4] = target: T4, ROCK2 (Homo sapiens, UniProt O75116)
T4 construct: purchased Thermo Fisher Scientific SelectScreen (plus Nanosyn / Reaction Biology for CDK/cyclin lines)
From the text: as §1

[5] = target: T5, PTK2B (FAK2) (Homo sapiens, UniProt Q14289)
T5 construct: purchased Thermo Fisher Scientific SelectScreen (plus Nanosyn / Reaction Biology for CDK/cyclin lines)
From the text: as §1

[6] = target: T6, STK25 (YSK1) (Homo sapiens, UniProt O00506)
T6 construct: purchased Thermo Fisher Scientific SelectScreen (plus Nanosyn / Reaction Biology for CDK/cyclin lines)
From the text: as §1

[7] = target: T7, FGFR4 (Homo sapiens, UniProt P22455)
T7 construct: purchased Thermo Fisher Scientific SelectScreen (plus Nanosyn / Reaction Biology for CDK/cyclin lines)
From the text: as §1

[8] = target: T8, PAK3 (Homo sapiens, UniProt O75914)
T8 construct: purchased Thermo Fisher Scientific SelectScreen (plus Nanosyn / Reaction Biology for CDK/cyclin lines)
From the text: as §1

[9] = target: T9, MAP3K9 (MLK1) (Homo sapiens, UniProt P80192)
T9 construct: purchased Thermo Fisher Scientific SelectScreen (plus Nanosyn / Reaction Biology for CDK/cyclin lines)
From the text: as §1

[10] = target: T10, EPHA2 (Homo sapiens, UniProt P29317)
T10 construct: purchased Thermo Fisher Scientific SelectScreen (plus Nanosyn / Reaction Biology for CDK/cyclin lines)
From the text: as §1

[11] = target: T11, CSK (Homo sapiens, UniProt P41240)
T11 construct: purchased Thermo Fisher Scientific SelectScreen (plus Nanosyn / Reaction Biology for CDK/cyclin lines)
From the text: as §1

[12] = target: T12, CAMK2B (CaMKII beta) (Homo sapiens, UniProt Q13554)
T12 construct: purchased Thermo Fisher Scientific SelectScreen (plus Nanosyn / Reaction Biology for CDK/cyclin lines)
From the text: as §1

[13] = target: T13, PRKCG (PKC gamma) (Homo sapiens, UniProt P05129)
T13 construct: purchased Thermo Fisher Scientific SelectScreen (plus Nanosyn / Reaction Biology for CDK/cyclin lines)
From the text: as §1

[14] = target: T14, CDC42 BPA (MRCKA) (Homo sapiens, UniProt Q5VT25)
T14 construct: purchased Thermo Fisher Scientific SelectScreen (plus Nanosyn / Reaction Biology for CDK/cyclin lines)
From the text: as §1

[15] = target: T15, PIM1 (Homo sapiens, UniProt P11309)
T15 construct: purchased Thermo Fisher Scientific SelectScreen (plus Nanosyn / Reaction Biology for CDK/cyclin lines)
From the text: as §1

[16] = target: T16, JAK1 (Homo sapiens, UniProt P23458)
T16 construct: purchased Thermo Fisher Scientific SelectScreen (plus Nanosyn / Reaction Biology for CDK/cyclin lines)
From the text: as §1

[17] = target: T17, EPHB2 (Homo sapiens, UniProt P29323)
T17 construct: purchased Thermo Fisher Scientific SelectScreen (plus Nanosyn / Reaction Biology for CDK/cyclin lines)
From the text: as §1

[18] = target: T18, PHKG2 (Homo sapiens, UniProt P15735)
T18 construct: purchased Thermo Fisher Scientific SelectScreen (plus Nanosyn / Reaction Biology for CDK/cyclin lines)
From the text: as §1

[19] = target: T19, ABL1 (Homo sapiens, UniProt P00519)
T19 construct: purchased Thermo Fisher Scientific SelectScreen (plus Nanosyn / Reaction Biology for CDK/cyclin lines)
From the text: as §1

[20] = target: T20, CAMK4 (CaMKIV) (Homo sapiens, UniProt Q16566)
T20 construct: purchased Thermo Fisher Scientific SelectScreen (plus Nanosyn / Reaction Biology for CDK/cyclin lines)
From the text: as §1

[21] = target: T21, CHEK2 (CHK2) (Homo sapiens, UniProt O96017)
T21 construct: purchased Thermo Fisher Scientific SelectScreen (plus Nanosyn / Reaction Biology for CDK/cyclin lines)
From the text: as §1

[22] = target: T22, CSNK1E (CK1 epsilon) R178C (Homo sapiens, UniProt P49674, R178C)
T22 construct: purchased Thermo Fisher Scientific SelectScreen (plus Nanosyn / Reaction Biology for CDK/cyclin lines)
From the text: as §1

[23] = target: T23, MAPK14 (p38 alpha) (Homo sapiens, UniProt Q16539)
T23 construct: purchased Thermo Fisher Scientific SelectScreen (plus Nanosyn / Reaction Biology for CDK/cyclin lines)
From the text: as §1

[24] = target: T24, EGFR (ErbB1) T790M L858R (Homo sapiens, UniProt P00533, L858R/T790M)
T24 construct: purchased Thermo Fisher Scientific SelectScreen (plus Nanosyn / Reaction Biology for CDK/cyclin lines)
From the text: as §1

[25] = target: T25, CDK5/p25 (Homo sapiens, UniProt Q00535)
T25 construct: purchased BPS 40105
From the text: as §1

[26] = target: T26, MAPKAPK3 (Homo sapiens, UniProt Q16644)
T26 construct: purchased Thermo Fisher Scientific SelectScreen (plus Nanosyn / Reaction Biology for CDK/cyclin lines)
From the text: as §1

[27] = target: T27, MET (cMet) (Homo sapiens, UniProt P08581)
T27 construct: purchased Thermo Fisher Scientific SelectScreen (plus Nanosyn / Reaction Biology for CDK/cyclin lines)
From the text: as §1

[28] = target: T28, TBK1 (Homo sapiens, UniProt Q9UHD2)
T28 construct: purchased Thermo Fisher Scientific SelectScreen (plus Nanosyn / Reaction Biology for CDK/cyclin lines)
From the text: as §1

[29] = target: T29, TYRO3 (RSE) (Homo sapiens, UniProt Q06418)
T29 construct: purchased Thermo Fisher Scientific SelectScreen (plus Nanosyn / Reaction Biology for CDK/cyclin lines)
From the text: as §1

[30] = target: T30, RAF1 (cRAF) Y340D Y341D (Homo sapiens, UniProt P04049, Y340D/Y341D)
T30 construct: purchased Thermo Fisher Scientific SelectScreen (plus Nanosyn / Reaction Biology for CDK/cyclin lines)
From the text: as §1

[31] = target: T31, PLK1 (Homo sapiens, UniProt P53350)
T31 construct: purchased Thermo Fisher Scientific SelectScreen (plus Nanosyn / Reaction Biology for CDK/cyclin lines)
From the text: as §1

[32] = target: T32, GRK7 (Homo sapiens, UniProt Q8WTQ7)
T32 construct: purchased Thermo Fisher Scientific SelectScreen (plus Nanosyn / Reaction Biology for CDK/cyclin lines)
From the text: as §1

[33] = target: T33, CLK3 (Homo sapiens, UniProt P49761)
T33 construct: purchased Thermo Fisher Scientific SelectScreen (plus Nanosyn / Reaction Biology for CDK/cyclin lines)
From the text: as §1

[34] = target: T34, RET A883F (Homo sapiens, UniProt P07949, A883F)
T34 construct: purchased Thermo Fisher Scientific SelectScreen (plus Nanosyn / Reaction Biology for CDK/cyclin lines)
From the text: as §1

[35] = target: T35, EGFR (ErbB1) G719C (Homo sapiens, UniProt P00533, G719C)
T35 construct: purchased Thermo Fisher Scientific SelectScreen (plus Nanosyn / Reaction Biology for CDK/cyclin lines)
From the text: as §1

[36] = target: T36, HCK (Homo sapiens, UniProt P08631)
T36 construct: purchased Thermo Fisher Scientific SelectScreen (plus Nanosyn / Reaction Biology for CDK/cyclin lines)
From the text: as §1

[37] = target: T37, GRK5 (Homo sapiens, UniProt P34947)
T37 construct: purchased Thermo Fisher Scientific SelectScreen (plus Nanosyn / Reaction Biology for CDK/cyclin lines)
From the text: as §1

T7 sequence (P22455 22-802): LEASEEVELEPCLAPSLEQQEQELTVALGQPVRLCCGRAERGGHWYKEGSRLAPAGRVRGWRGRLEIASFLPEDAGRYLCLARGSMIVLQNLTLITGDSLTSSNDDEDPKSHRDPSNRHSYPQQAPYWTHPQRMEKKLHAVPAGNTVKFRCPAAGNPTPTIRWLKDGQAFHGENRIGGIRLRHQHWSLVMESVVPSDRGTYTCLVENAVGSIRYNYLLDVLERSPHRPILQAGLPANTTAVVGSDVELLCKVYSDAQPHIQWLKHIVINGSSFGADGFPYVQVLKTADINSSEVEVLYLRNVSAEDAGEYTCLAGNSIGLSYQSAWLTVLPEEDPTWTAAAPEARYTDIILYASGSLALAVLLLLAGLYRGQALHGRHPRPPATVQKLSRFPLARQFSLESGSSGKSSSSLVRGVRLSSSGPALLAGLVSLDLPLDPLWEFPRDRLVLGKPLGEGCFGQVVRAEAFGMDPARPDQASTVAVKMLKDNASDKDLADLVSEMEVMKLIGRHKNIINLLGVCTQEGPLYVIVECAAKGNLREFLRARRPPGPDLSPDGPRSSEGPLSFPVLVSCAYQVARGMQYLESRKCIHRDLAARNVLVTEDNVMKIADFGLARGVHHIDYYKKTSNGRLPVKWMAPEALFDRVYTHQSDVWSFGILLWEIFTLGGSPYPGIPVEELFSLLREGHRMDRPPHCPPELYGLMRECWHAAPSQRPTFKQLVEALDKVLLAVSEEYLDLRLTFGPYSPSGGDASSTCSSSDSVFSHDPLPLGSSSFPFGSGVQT
T19 sequence (P00519 whole entry): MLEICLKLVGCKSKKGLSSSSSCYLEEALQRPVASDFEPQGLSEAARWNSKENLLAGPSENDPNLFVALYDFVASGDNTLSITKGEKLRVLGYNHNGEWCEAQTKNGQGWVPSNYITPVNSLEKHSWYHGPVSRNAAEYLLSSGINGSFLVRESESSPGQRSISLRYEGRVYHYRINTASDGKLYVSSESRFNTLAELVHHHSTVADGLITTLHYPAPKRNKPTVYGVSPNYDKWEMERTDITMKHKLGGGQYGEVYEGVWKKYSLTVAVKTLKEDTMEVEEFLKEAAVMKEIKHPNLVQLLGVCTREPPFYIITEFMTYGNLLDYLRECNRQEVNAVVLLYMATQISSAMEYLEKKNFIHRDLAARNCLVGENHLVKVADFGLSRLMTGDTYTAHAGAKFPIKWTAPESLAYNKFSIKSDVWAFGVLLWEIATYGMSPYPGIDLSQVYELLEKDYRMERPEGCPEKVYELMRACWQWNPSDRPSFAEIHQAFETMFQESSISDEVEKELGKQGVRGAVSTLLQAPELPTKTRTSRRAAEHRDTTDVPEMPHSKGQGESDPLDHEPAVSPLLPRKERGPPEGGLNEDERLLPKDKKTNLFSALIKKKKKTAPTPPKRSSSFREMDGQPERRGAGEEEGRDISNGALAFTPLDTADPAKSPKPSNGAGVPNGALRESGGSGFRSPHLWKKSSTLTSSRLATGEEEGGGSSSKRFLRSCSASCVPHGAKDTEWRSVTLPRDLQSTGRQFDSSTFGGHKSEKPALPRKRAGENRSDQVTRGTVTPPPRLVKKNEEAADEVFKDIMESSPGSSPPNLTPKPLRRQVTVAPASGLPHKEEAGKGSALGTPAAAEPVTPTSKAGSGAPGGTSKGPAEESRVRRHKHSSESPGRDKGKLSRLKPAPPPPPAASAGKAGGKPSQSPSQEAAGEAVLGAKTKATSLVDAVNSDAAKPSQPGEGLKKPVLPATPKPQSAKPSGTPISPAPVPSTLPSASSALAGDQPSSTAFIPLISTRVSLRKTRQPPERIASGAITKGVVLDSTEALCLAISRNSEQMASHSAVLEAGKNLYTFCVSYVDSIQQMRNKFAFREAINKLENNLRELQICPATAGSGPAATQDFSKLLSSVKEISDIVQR
T25 sequence (Q00535 whole entry): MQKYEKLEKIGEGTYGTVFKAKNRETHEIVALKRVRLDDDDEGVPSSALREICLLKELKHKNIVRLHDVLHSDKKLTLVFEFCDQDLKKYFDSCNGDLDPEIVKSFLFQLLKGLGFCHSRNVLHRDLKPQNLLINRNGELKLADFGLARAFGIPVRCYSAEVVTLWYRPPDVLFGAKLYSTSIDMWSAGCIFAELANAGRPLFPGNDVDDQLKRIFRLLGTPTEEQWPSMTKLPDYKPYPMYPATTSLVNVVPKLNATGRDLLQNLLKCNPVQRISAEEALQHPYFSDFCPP
T25 sequence (Q15078 99-307 partner limits assumed): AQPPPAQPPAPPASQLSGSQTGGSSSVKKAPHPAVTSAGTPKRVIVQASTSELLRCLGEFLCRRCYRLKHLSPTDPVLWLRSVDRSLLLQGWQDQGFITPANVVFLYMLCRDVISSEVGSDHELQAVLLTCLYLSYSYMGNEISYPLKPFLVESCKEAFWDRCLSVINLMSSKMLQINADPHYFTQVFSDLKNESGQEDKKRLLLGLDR
T27 sequence (P08581 25-1390): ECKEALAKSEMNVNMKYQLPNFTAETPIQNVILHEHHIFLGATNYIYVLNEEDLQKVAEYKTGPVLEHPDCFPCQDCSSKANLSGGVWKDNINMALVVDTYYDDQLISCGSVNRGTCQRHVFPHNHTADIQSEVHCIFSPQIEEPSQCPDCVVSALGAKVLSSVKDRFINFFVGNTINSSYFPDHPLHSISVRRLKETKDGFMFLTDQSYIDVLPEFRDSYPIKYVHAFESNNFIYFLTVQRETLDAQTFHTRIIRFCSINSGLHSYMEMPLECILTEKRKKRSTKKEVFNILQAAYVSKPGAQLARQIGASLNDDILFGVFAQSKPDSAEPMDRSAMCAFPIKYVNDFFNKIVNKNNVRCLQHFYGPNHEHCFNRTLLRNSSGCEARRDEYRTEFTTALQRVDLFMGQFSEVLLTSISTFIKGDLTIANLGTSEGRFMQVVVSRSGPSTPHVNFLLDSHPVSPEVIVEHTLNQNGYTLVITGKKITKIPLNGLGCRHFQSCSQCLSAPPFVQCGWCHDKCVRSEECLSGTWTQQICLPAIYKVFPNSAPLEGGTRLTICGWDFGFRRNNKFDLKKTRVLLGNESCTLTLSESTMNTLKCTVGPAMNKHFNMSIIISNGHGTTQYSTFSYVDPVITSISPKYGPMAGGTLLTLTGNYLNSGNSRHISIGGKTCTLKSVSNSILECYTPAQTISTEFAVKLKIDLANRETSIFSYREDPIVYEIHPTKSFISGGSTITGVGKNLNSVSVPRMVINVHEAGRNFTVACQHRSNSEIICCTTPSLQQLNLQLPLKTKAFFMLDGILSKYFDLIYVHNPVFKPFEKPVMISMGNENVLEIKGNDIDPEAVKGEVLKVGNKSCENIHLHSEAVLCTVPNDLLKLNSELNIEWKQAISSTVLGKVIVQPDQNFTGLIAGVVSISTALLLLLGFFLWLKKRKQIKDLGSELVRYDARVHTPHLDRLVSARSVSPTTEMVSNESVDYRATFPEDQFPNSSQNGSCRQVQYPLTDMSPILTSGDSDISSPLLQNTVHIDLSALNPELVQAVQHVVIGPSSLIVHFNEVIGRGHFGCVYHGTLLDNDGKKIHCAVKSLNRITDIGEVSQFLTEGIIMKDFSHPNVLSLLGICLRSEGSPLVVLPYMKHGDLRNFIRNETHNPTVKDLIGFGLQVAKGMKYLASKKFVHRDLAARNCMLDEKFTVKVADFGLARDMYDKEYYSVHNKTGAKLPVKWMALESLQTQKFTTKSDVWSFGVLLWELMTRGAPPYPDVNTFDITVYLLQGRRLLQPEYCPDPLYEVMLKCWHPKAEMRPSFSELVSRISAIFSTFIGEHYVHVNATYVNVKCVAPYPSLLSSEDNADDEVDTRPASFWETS
T33 sequence (P49761 whole entry): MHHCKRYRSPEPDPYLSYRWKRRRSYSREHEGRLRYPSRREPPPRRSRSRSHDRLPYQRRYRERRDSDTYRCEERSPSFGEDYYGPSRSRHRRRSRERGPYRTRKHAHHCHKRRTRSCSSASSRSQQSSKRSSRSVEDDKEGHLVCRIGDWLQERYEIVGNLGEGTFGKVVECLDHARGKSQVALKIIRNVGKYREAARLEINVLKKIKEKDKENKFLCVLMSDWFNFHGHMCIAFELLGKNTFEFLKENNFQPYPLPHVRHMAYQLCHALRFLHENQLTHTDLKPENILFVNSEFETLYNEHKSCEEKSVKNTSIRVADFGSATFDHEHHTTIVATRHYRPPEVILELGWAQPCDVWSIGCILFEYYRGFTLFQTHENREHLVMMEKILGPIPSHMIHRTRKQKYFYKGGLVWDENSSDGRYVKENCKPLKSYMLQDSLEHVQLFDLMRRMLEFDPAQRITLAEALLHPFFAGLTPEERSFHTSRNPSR

Structure (SMILES): NS(=O)(=O)c1ccc(Nc2ncc3cc4n(c3n2)C2(CCCCC2)C(=O)NN4)cc1 [INX-315]
- inhibition at 0.1 µM [1]: 20%
- inhibition at 0.1 µM [2]: 16%
- inhibition at 0.1 µM [3]: 23%
- inhibition at 0.1 µM [4]: 6%
- inhibition at 0.1 µM [5]: 5%
- inhibition at 0.1 µM [6]: 1%
- inhibition at 0.1 µM [7]: 2%
- inhibition at 0.1 µM [8]: 4%
- inhibition at 0.1 µM [9]: 22%
- inhibition at 0.1 µM [10]: 14%
- inhibition at 0.1 µM [11]: 1%
- inhibition at 0.1 µM [12]: 17%
- inhibition at 0.1 µM [13]: 7%
- inhibition at 0.1 µM [14]: -3%
- inhibition at 0.1 µM [15]: 1%
- inhibition at 0.1 µM [16]: 78%
- inhibition at 0.1 µM [17]: 20%
- inhibition at 0.1 µM [18]: 2%
- inhibition at 0.1 µM [19]: 14%
- inhibition at 0.1 µM [20]: 0%
- inhibition at 0.1 µM [21]: 7%
- inhibition at 0.1 µM [22]: 5%
- inhibition at 0.1 µM [23]: 1%
- inhibition at 0.1 µM [24]: 0%
- inhibition at 0.1 µM [25]: 93%
- inhibition at 0.1 µM [26]: 8%
- inhibition at 0.1 µM [27]: 6%
- inhibition at 0.1 µM [28]: 5%
- inhibition at 0.1 µM [29]: 14%
- inhibition at 0.1 µM [30]: 5%
- inhibition at 0.1 µM [31]: 4%
- inhibition at 0.1 µM [32]: 62%
- inhibition at 0.1 µM [33]: -1%
- inhibition at 0.1 µM [34]: 22%
- inhibition at 0.1 µM [35]: 0%
- inhibition at 0.1 µM [36]: 10%
- inhibition at 0.1 µM [37]: 24%

Source: PMC10905675, “INX-315, a Selective CDK2 Inhibitor, Induces Cell Cycle Arrest and Senescence in Solid Tumors” (Cancer Discovery, 2023)
